These results are taken from PubChem BioAssay AID1259407 (Chemical Carcinogenesis Research Information System (CCRIS), 2018).

The series has as its system CCRIS mutagenicity, Ames/micronucleus/aberration tests. The experiment in a line: CCRIS mutagenicity studies.
The mark [1] stands for this setting: Test System: AMES SALMONELLA TYPHIMURIUM, Strain/Indicator: TA98, Metabolic Activation: NONE, Method: STANDARD PLATE.
Where [2] appears, read: Test System: AMES SALMONELLA TYPHIMURIUM, Strain/Indicator: TA100, Metabolic Activation: NONE, Method: STANDARD PLATE.
Setting [3] is: Test System: AMES SALMONELLA TYPHIMURIUM, Strain/Indicator: TA98, Metabolic Activation: HAMSTER, LIVER, S-9, AROCLOR 1254 (30%), Method: PREINCUBATION
Where [4] appears, read: Test System: AMES SALMONELLA TYPHIMURIUM, Strain/Indicator: TA98, Metabolic Activation: NONE, Method: PREINCUBATION
Where [5] appears, read: Test System: AMES SALMONELLA TYPHIMURIUM, Strain/Indicator: TA98, Metabolic Activation: RAT, LIVER, S-9, AROCLOR 1254 (30%), Method: PREINCUBATION
Setting [6] is: Test System: AMES SALMONELLA TYPHIMURIUM, Strain/Indicator: TA100, Metabolic Activation: HAMSTER, LIVER, S-9, AROCLOR 1254 (30%), Method: PREINCUBATION
Where [7] appears, read: Test System: AMES SALMONELLA TYPHIMURIUM, Strain/Indicator: TA100, Metabolic Activation: NONE, Method: PREINCUBATION
[8] abbreviates: Test System: AMES SALMONELLA TYPHIMURIUM, Strain/Indicator: TA100, Metabolic Activation: RAT, LIVER, S-9, AROCLOR 1254 (30%), Method: PREINCUBATION

Activity calls are given as the source filed them. How the calls were made is not given here.

As for `CNC(=O)Oc1cccc2c1OC(C)(C)C2`, the mutagenic call (End Point: CHROMOSOMAL ABERRATIONS, Test System: BONE MARROW, Species: MOUSE, Strain/Sex: SWISS/MALE, Route: GAVAGE) was “active; positive (structural changes)”; the mutagenic call (End Point: IN VIVO MICRONUCLEUS, Test System: BONE MARROW POLYCHROMATIC ERYTHROCYTES, Species: MOUSE, Strain/Sex: KM/MALE, FEMALE, Route: IP INJECTION) was “inactive; negative”; the mutagenic call (Test System: AMES SALMONELLA TYPHIMURIUM, Strain/Indicator: TA97A, Metabolic Activation: NONE, Method: STANDARD PLATE) is “inactive; negative”; the mutagenic call under setting [1] was “inactive; negative”; the mutagenic call under setting [2] is “inactive; negative”; the mutagenic call (Test System: AMES SALMONELLA TYPHIMURIUM, Strain/Indicator: TA102, Metabolic Activation: NONE, Method: STANDARD PLATE) is “inactive; negative”. Moreover, the mutagenic call was “inactive; negative” (Test System: AMES SALMONELLA TYPHIMURIUM, Strain/Indicator: TA104, Metabolic Activation: NONE, Method: STANDARD PLATE) and “inactive; negative” (Test System: AMES SALMONELLA TYPHIMURIUM, Strain/Indicator: TA1535, Metabolic Activation: NONE, Method: STANDARD PLATE).
`COc1cc(O)cc2c1cc([N+](=O)[O-])c1c(C(=O)O)cc3c(c12)OCO3`: for the setting “Test System: AMES SALMONELLA TYPHIMURIUM, Strain/Indicator: TM677/8-AZAGUANINE, Metabolic Activation: NONE, Method: SUSPENSION/PLATE”, the mutagenic call is “inactive; negative”.
For the compound `COc1cc2c(cc1OC)CN(N=O)CC2`, the mutagenic call is “active; positive” (Test System: AMES SALMONELLA TYPHIMURIUM, Strain/Indicator: TA98, Metabolic Activation: RAT, LIVER, S-9, AROCLOR 1254, Method: PREINCUBATION); “active; positive” (Test System: AMES SALMONELLA TYPHIMURIUM, Strain/Indicator: TA100, Metabolic Activation: RAT, LIVER, S-9, AROCLOR 1254, Method: PREINCUBATION); “active; positive” (Test System: AMES SALMONELLA TYPHIMURIUM, Strain/Indicator: TA1535, Metabolic Activation: RAT, LIVER, S-9, AROCLOR 1254, Method: PREINCUBATION); “active; positive” (Test System: AMES SALMONELLA TYPHIMURIUM, Strain/Indicator: TA1537, Metabolic Activation: RAT, LIVER, S-9, AROCLOR 1254, Method: PREINCUBATION); “active; positive” (Test System: AMES SALMONELLA TYPHIMURIUM, Strain/Indicator: TA1538, Metabolic Activation: RAT, LIVER, S-9, AROCLOR 1254, Method: PREINCUBATION).
As for `C1COC1`, the mutagenic call by setting is: (Test System: AMES SALMONELLA TYPHIMURIUM, Strain/Indicator: TA97, Metabolic Activation: HAMSTER, LIVER, S-9, AROCLOR 1254 (30%), Method: PREINCUBATION) “inactive; negative”; (Test System: AMES SALMONELLA TYPHIMURIUM, Strain/Indicator: TA97, Metabolic Activation: NONE, Method: PREINCUBATION) “inactive; negative”; (Test System: AMES SALMONELLA TYPHIMURIUM, Strain/Indicator: TA97, Metabolic Activation: RAT, LIVER, S-9, AROCLOR 1254 (30%), Method: PREINCUBATION) “inactive; negative”; under setting [3], “inactive; negative”; under setting [4], “inactive; negative”; under setting [5], “inactive; negative”. For the same compound, the mutagenic call by setting is: under setting [6], “inactive; negative”; under setting [7], “inactive; negative”; under setting [8], “inactive; negative”; (Test System: AMES SALMONELLA TYPHIMURIUM, Strain/Indicator: TA1535, Metabolic Activation: HAMSTER, LIVER, S-9, AROCLOR 1254 (10 OR 30%), Method: PREINCUBATION) “active; positive”; (Test System: AMES SALMONELLA TYPHIMURIUM, Strain/Indicator: TA1535, Metabolic Activation: NONE, Method: PREINCUBATION) “inactive; negative”; (Test System: AMES SALMONELLA TYPHIMURIUM, Strain/Indicator: TA1535, Metabolic Activation: RAT, LIVER, S-9, AROCLOR 1254 (10 OR 30%), Method: PREINCUBATION) “active; positive”. The mutagenic call is, setting by setting: (Test System: AMES SALMONELLA TYPHIMURIUM, Strain/Indicator: TA1537, Metabolic Activation: HAMSTER, LIVER, S-9, AROCLOR 1254 (30%), Method: PREINCUBATION) “inactive; negative”; (Test System: AMES SALMONELLA TYPHIMURIUM, Strain/Indicator: TA1537, Metabolic Activation: NONE, Method: PREINCUBATION) “inactive; negative”; (Test System: AMES SALMONELLA TYPHIMURIUM, Strain/Indicator: TA1537, Metabolic Activation: RAT, LIVER, S-9, AROCLOR 1254 (30%), Method: PREINCUBATION) “inactive; negative”.
As to `O=[N+]([O-])c1c2ccccc2cc2ccccc12`, the mutagenic call runs as follows: under setting [3], “active; positive”; under setting [4], “active; positive”; under setting [1], “active; positive”; (Test System: AMES SALMONELLA TYPHIMURIUM, Strain/Indicator: TA98, Metabolic Activation: RAT, LIVER, S-9, AROCLOR 1254 (10%), Method: PREINCUBATION) “active; positive”; under setting [5], “active; positive”; (Test System: AMES SALMONELLA TYPHIMURIUM, Strain/Indicator: TA98, Metabolic Activation: RAT, LIVER, S-9, Method: STANDARD PLATE) “active; positive”. Besides, the mutagenic call is, setting by setting: under setting [6], “active; positive”; under setting [7], “active; positive”; under setting [2], “inactive; negative”; (Test System: AMES SALMONELLA TYPHIMURIUM, Strain/Indicator: TA100, Metabolic Activation: RAT, LIVER, S-9, AROCLOR 1254 (10%), Method: PREINCUBATION) “active; positive”; under setting [8], “active; positive”; (Test System: AMES SALMONELLA TYPHIMURIUM, Strain/Indicator: TA100, Metabolic Activation: RAT, LIVER, S-9, Method: STANDARD PLATE) “inactive; negative”.
For the compound `O=C1CCCc2cc3c(cc21)c([N+](=O)[O-])cc1ccccc13`, the mutagenic call reads like this: (Test System: AMES SALMONELLA TYPHIMURIUM, Strain/Indicator: TA98-1,8-DNP6, Metabolic Activation: NONE) “inactive; negative”; (Test System: AMES SALMONELLA TYPHIMURIUM, Strain/Indicator: TA98-1,8-DNP6, Metabolic Activation: S-9) “inactive; negative”; (Test System: AMES SALMONELLA TYPHIMURIUM, Strain/Indicator: TA98, Metabolic Activation: NONE) “active; positive”; (Test System: AMES SALMONELLA TYPHIMURIUM, Strain/Indicator: TA98, Metabolic Activation: S-9) “active; positive”; (Test System: AMES SALMONELLA TYPHIMURIUM, Strain/Indicator: TA98NR, Metabolic Activation: NONE) “inactive; negative”; (Test System: AMES SALMONELLA TYPHIMURIUM, Strain/Indicator: TA98NR, Metabolic Activation: S-9) “inactive; negative”. Further, the mutagenic call was “active; positive” (Test System: AMES SALMONELLA TYPHIMURIUM, Strain/Indicator: TA100, Metabolic Activation: NONE); “active; positive” (Test System: AMES SALMONELLA TYPHIMURIUM, Strain/Indicator: TA100, Metabolic Activation: S-9); “active; positive” (Test System: AMES SALMONELLA TYPHIMURIUM, Strain/Indicator: TA100NR, Metabolic Activation: NONE); “active; positive” (Test System: AMES SALMONELLA TYPHIMURIUM, Strain/Indicator: TA100NR, Metabolic Activation: S-9).
Take `CN(C)CCNC(=O)c1cccc2nc3ccccc3nc12`: the mutagenic call (Test System: AMES SALMONELLA TYPHIMURIUM, Strain/Indicator: TA1537, Metabolic Activation: NONE, Method: STANDARD PLATE) is “active; positive”.
